From ChEMBL document CHEMBL1201862, “PubChem BioAssay data set” (2004)
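Step 1: Grow cells in 96-well plates. Step 2: Expose to compound for 48 hours at 5 concentrations. Step 3: Interpolate endpoints linearly; if unreached, use highest concentration. The concentration for 50% growth inhibition is given as GI50.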 The source made the active and inactive calls. Cut-off read from the data, not from the text of the source: active = GI50 up to about 1.1 µM and inactive = higher.

Experiments:
Assay in all cases: NCI tumour cell line growth inhibition, 48 h
786-0 = test system: 786-0
UO-31 = test system: UO-31
IGROV-1 = test system: IGROV-1
OVCAR-3 = test system: OVCAR-3
SF-539 = test system: SF-539
OVCAR-8 = test system: OVCAR-8
ACHN = test system: ACHN
NCI-H460 = test system: NCI-H460
SK-MEL-28 = test system: SK-MEL-28
NCI-H226 = test system: NCI-H226
PC-3 = test system: PC-3
NCI-H23 = test system: NCI-H23
NCI-H522 = test system: NCI-H522
K562 = test system: K562
Hs-578T = test system: Hs-578T
HT-29 = test system: HT-29
A498 = test system: A498
A549 = test system: A549
HL-60 = test system: HL-60
OVCAR-4 = test system: OVCAR-4
U-251 = test system: U-251
RXF 393 = test system: RXF 393
HOP-92 = test system: HOP-92
MOLT-4 = test system: MOLT-4
DU-145 = test system: DU-145
LOX IMVI = test system: LOX IMVI
Malme-3M = test system: Malme-3M
KM12 = test system: KM12
SF-268 = test system: SF-268
OVCAR-5 = test system: OVCAR-5
HCT-15 = test system: HCT-15
BT-549 = test system: BT-549
TK-10 = test system: TK-10
MCF7 = test system: MCF7
MDA-MB-231 = test system: MDA-MB-231
SK-MEL-5 = test system: SK-MEL-5
HCT-116 = test system: HCT-116
EKVX = test system: EKVX
SR = test system: SR
SW-620 = test system: SW-620
MDA-N = test system: MDA-N
CCRF-CEM = test system: CCRF-CEM
HCC 2998 = test system: HCC 2998
SF-295 = test system: SF-295
SNB-19 = test system: SNB-19
HOP-62 = test system: HOP-62
M14 = test system: M14
SNB-75 = test system: SNB-75
SN12C = test system: SN12C
T47D = test system: T47D
CAKI-1 = test system: CAKI-1
UACC-257 = test system: UACC-257
MDA-MB-435 = test system: MDA-MB-435

For `CC(=O)Oc1ccc2cc(Oc3cc(Cl)c(Cl)cc3Cl)c(=O)oc2c1`, the GI50 (786-0) was 15.6 µM (inactive), the GI50 (UO-31) was 13.1 µM (inactive) and the GI50 (IGROV-1) was 11.2 µM (inactive). For the same compound, the GI50 (OVCAR-3) was 16 µM (inactive), the GI50 (SF-539) was 16 µM (inactive) and the GI50 (OVCAR-8) was 17.1 µM (inactive). For the same compound, the GI50 (ACHN) was 22.9 µM (inactive), the GI50 (NCI-H460) was 18.8 µM (inactive) and the GI50 (SK-MEL-28) was 26.2 µM (inactive). The GI50 (NCI-H226) was 16.9 µM (inactive), the GI50 (PC-3) was 16.1 µM (inactive) and the GI50 (NCI-H23) was 22.2 µM (inactive). For the same compound, the GI50 (NCI-H522) was 16.7 µM (inactive), the GI50 (K562) was 13.2 µM (inactive) and the GI50 (Hs-578T) was 22.2 µM (inactive). The GI50 (HT-29) was 16.8 µM (inactive), the GI50 (A498) was 17.7 µM (inactive) and the GI50 (A549) was 16.4 µM (inactive). For the same compound, the GI50 (HL-60) was 22.7 µM (inactive), the GI50 (OVCAR-4) was 34.5 µM (inactive) and the GI50 (U-251) was 15.6 µM (inactive). For the same compound, the GI50 (RXF 393) was 14.6 µM (inactive), the GI50 (HOP-92) was 17.8 µM (inactive) and the GI50 (MOLT-4) was 11.9 µM (inactive). For the same compound, the GI50 (DU-145) was 25.3 µM (inactive), the GI50 (LOX IMVI) was 15.4 µM (inactive) and the GI50 (Malme-3M) was 15.3 µM (inactive). For the same compound, the GI50 (KM12) was 13 µM (inactive), the GI50 (SF-268) was 26.9 µM (inactive) and the GI50 (OVCAR-5) was 18.5 µM (inactive). The GI50 (HCT-15) was 13.1 µM, the GI50 (BT-549) was 13.1 µM (inactive) and the GI50 (TK-10) was 24.8 µM (inactive). The GI50 (MCF7) was 24.2 µM (inactive), the GI50 (MDA-MB-231) was 16.4 µM (inactive) and the GI50 (SK-MEL-5) was 11.9 µM (inactive). For the same compound, the GI50 (HCT-116) was 14.9 µM (inactive), the GI50 (EKVX) was 24.4 µM (inactive) and the GI50 (SR) was 19.8 µM (inactive). For the same compound, the GI50 (SW-620) was 14.8 µM (inactive), the GI50 (MDA-N) was 14.6 µM (inactive) and the GI50 (CCRF-CEM) was 14 µM (inactive). The GI50 (HCC 2998) was 17.1 µM (inactive), the GI50 (SF-295) was 22.4 µM (inactive) and the GI50 (SNB-19) was 29.6 µM (inactive). For the same compound, the GI50 (HOP-62) was 17.3 µM (inactive), the GI50 (M14) was 18.2 µM (inactive) and the GI50 (SNB-75) was 19.6 µM (inactive). For the same compound, the GI50 (SN12C) was 14.6 µM (inactive), the GI50 (T47D) was 27.2 µM (inactive) and the GI50 (CAKI-1) was 18 µM (inactive). The GI50 (UACC-257) was 20.6 µM (inactive).
In the case of `CC(C)=Nn1cnc2c1=NC(C)(C)NC=2C(N)=O`, the GI50 (786-0) is reported as > 10 µM (inactive), the GI50 (UO-31) is reported as > 10 µM (inactive) and the GI50 (IGROV-1) is reported as > 10 µM (inactive). The GI50 (OVCAR-3) was > 10 µM (inactive), the GI50 (SF-539) was > 10 µM (inactive) and the GI50 (OVCAR-8) was > 10 µM (inactive). The GI50 (ACHN) was > 10 µM (inactive), the GI50 (NCI-H460) was > 10 µM (inactive) and the GI50 (MDA-MB-435) was > 10 µM (inactive). The GI50 (NCI-H226) was > 10 µM (inactive), the GI50 (NCI-H23) was > 10 µM (inactive) and the GI50 (NCI-H522) was > 10 µM (inactive). The GI50 (K562) was > 10 µM (inactive), the GI50 (Hs-578T) was > 10 µM (inactive) and the GI50 (HT-29) was 1 µM (active). The GI50 (A549) was > 10 µM (inactive), the GI50 (HL-60) was > 10 µM (inactive) and the GI50 (OVCAR-4) was > 10 µM (inactive). For the same compound, the GI50 (U-251) was > 10 µM (inactive), the GI50 (RXF 393) was > 10 µM (inactive) and the GI50 (MOLT-4) was > 10 µM (inactive). For the same compound, the GI50 (DU-145) was > 10 µM (inactive), the GI50 (KM12) was > 10 µM (inactive) and the GI50 (SF-268) was > 10 µM (inactive). For the same compound, the GI50 (OVCAR-5) was > 10 µM (inactive), the GI50 (BT-549) was > 10 µM (inactive) and the GI50 (TK-10) was > 10 µM (inactive). The GI50 (MCF7) was > 10 µM (inactive), the GI50 (MDA-MB-231) was 0.125 µM (active) and the GI50 (SK-MEL-5) was > 10 µM (inactive). For the same compound, the GI50 (EKVX) was > 10 µM (inactive), the GI50 (SR) was > 10 µM (inactive) and the GI50 (MDA-N) was > 10 µM (inactive). The GI50 (CCRF-CEM) was > 10 µM (inactive), the GI50 (SF-295) was > 10 µM (inactive) and the GI50 (SNB-19) was > 10 µM (inactive). The GI50 (M14) was > 10 µM (inactive), the GI50 (SNB-75) was > 10 µM (inactive) and the GI50 (T47D) was 0.001 µM (active). The GI50 (UACC-257) was > 10 µM (inactive).
